What was measured:
Assay in all cases: relative viability (nuclei count vs DMSO), 5 days (fraction); higher = more cells survive
201T = test system: 201T
Procedure, shortened: (§1)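 Nuclei were stained with Hoechst during a one-step fixation (final 0.05% Triton X-100, 1% formaldehyde, 1 ug/ml Hoechst) carried out 5 days after dosing, then counted on 4× images. The cells, lung cancer lines in 1536-well plates, had been dosed by pin tool the day after seeding with one drug alone or a fixed anchor-drug dose plus five library-drug doses (not always all listed) in √10 steps. Relative viability is the nuclei count in treated wells divided by that in vehicle wells, and each value is the median of duplicate plates.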

BEN = test system: BEN
Procedure, shortened: as §1

COR-L 105 = test system: COR-L 105
Procedure, shortened: as §1

EKVX = test system: EKVX
Procedure, shortened: as §1

EPLC-272H = test system: EPLC-272H
Procedure, shortened: as §1

H3255 = test system: H3255
Procedure, shortened: as §1

HCC-44 = test system: HCC-44
Procedure, shortened: as §1

HCC-827 = test system: HCC-827
Procedure, shortened: as §1

LCLC-97TM1 = test system: LCLC-97TM1
Procedure, shortened: as §1

LOU-NH91 = test system: LOU-NH91
Procedure, shortened: as §1

LU99A = test system: LU99A
Procedure, shortened: as §1

NCI-H1437 = test system: NCI-H1437
Procedure, shortened: as §1

NCI-H1666 = test system: NCI-H1666
Procedure, shortened: as §1

NCI-H1975 = test system: NCI-H1975
Procedure, shortened: as §1

NCI-H2085 = test system: NCI-H2085
Procedure, shortened: as §1

NCI-H2087 = test system: NCI-H2087
Procedure, shortened: as §1

NCI-H2170 = test system: NCI-H2170
Procedure, shortened: as §1

NCI-H2342 = test system: NCI-H2342
Procedure, shortened: as §1

NCI-H647 = test system: NCI-H647
Procedure, shortened: as §1

NCI-H650 = test system: NCI-H650
Procedure, shortened: as §1

PC-3 [JPC-3] = test system: PC-3 [JPC-3]
Procedure, shortened: as §1

SW 1573 = test system: SW 1573
Procedure, shortened: as §1

## COc1cc2nccc(Oc3ccc(NC(=O)Nc4cc(C)on4)c(Cl)c3)c2cc1OC [Tivozanib] + Nc1ncn([C@H]2C[C@H](O)[C@@H](CO)O2)c(=O)n1 [Decitabine] (partner 2 µM)
201T; first compound 0.005 µM
  relative viability: 0.85
201T; first compound 0.01581 µM
  relative viability: 0.855
201T; first compound 0.05 µM
  relative viability: 0.87
201T; first compound 0.1581 µM
  relative viability: 0.854
201T; first compound 0.5 µM
  relative viability: 0.896
BEN; first compound 0.005 µM
  relative viability: 0.725
BEN; first compound 0.01581 µM
  relative viability: 0.703
BEN; first compound 0.05 µM
  relative viability: 0.761
BEN; first compound 0.1581 µM
  relative viability: 0.471
BEN; first compound 0.5 µM
  relative viability: 0.563
COR-L 105; first compound 0.005 µM
  relative viability: 0.677
COR-L 105; first compound 0.01581 µM
  relative viability: 0.638
COR-L 105; first compound 0.05 µM
  relative viability: 0.731
COR-L 105; first compound 0.1581 µM
  relative viability: 0.627
COR-L 105; first compound 0.5 µM
  relative viability: 0.628
EKVX; first compound 0.005 µM
  relative viability: 0.308
EKVX; first compound 0.01581 µM
  relative viability: 0.353
EKVX; first compound 0.05 µM
  relative viability: 0.386
EKVX; first compound 0.1581 µM
  relative viability: 0.363
EKVX; first compound 0.5 µM
  relative viability: 0.313
EPLC-272H; first compound 0.005 µM
  relative viability: 0.342
EPLC-272H; first compound 0.01581 µM
  relative viability: 0.416
EPLC-272H; first compound 0.05 µM
  relative viability: 0.391
EPLC-272H; first compound 0.1581 µM
  relative viability: 0.409
EPLC-272H; first compound 0.5 µM
  relative viability: 0.365
H3255; first compound 0.005 µM
  relative viability: 0.541
H3255; first compound 0.01581 µM
  relative viability: 0.592
H3255; first compound 0.05 µM
  relative viability: 0.591
H3255; first compound 0.1581 µM
  relative viability: 0.552
H3255; first compound 0.5 µM
  relative viability: 0.77
HCC-44; first compound 0.005 µM
  relative viability: 0.92
HCC-44; first compound 0.01581 µM
  relative viability: 0.964
HCC-44; first compound 0.05 µM
  relative viability: 0.956
HCC-44; first compound 0.1581 µM
  relative viability: 0.982
HCC-44; first compound 0.5 µM
  relative viability: 0.937
HCC-827; first compound 0.005 µM
  relative viability: 0.264
HCC-827; first compound 0.01581 µM
  relative viability: 0.345
HCC-827; first compound 0.05 µM
  relative viability: 0.311
HCC-827; first compound 0.1581 µM
  relative viability: 0.289
HCC-827; first compound 0.5 µM
  relative viability: 0.268
LCLC-97TM1; first compound 0.005 µM
  relative viability: 0.215
LCLC-97TM1; first compound 0.01581 µM
  relative viability: 0.22
LCLC-97TM1; first compound 0.05 µM
  relative viability: 0.297
LCLC-97TM1; first compound 0.1581 µM
  relative viability: 0.221
LCLC-97TM1; first compound 0.5 µM
  relative viability: 0.19
LOU-NH91; first compound 0.005 µM
  relative viability: 0.772
LOU-NH91; first compound 0.01581 µM
  relative viability: 0.8
LOU-NH91; first compound 0.05 µM
  relative viability: 0.808
LOU-NH91; first compound 0.1581 µM
  relative viability: 0.752
LOU-NH91; first compound 0.5 µM
  relative viability: 0.796
LU99A; first compound 0.005 µM
  relative viability: 1.04
LU99A; first compound 0.01581 µM
  relative viability: 0.769
LU99A; first compound 0.05 µM
  relative viability: 0.894
LU99A; first compound 0.1581 µM
  relative viability: 0.679
LU99A; first compound 0.5 µM
  relative viability: 0.758
NCI-H1437; first compound 0.005 µM
  relative viability: 0.629
NCI-H1437; first compound 0.01581 µM
  relative viability: 0.582
NCI-H1437; first compound 0.05 µM
  relative viability: 0.594
NCI-H1437; first compound 0.1581 µM
  relative viability: 0.653
NCI-H1437; first compound 0.5 µM
  relative viability: 0.564
NCI-H1666; first compound 0.005 µM
  relative viability: 0.664
NCI-H1666; first compound 0.01581 µM
  relative viability: 0.683
NCI-H1666; first compound 0.05 µM
  relative viability: 0.784
NCI-H1666; first compound 0.1581 µM
  relative viability: 0.665
NCI-H1666; first compound 0.5 µM
  relative viability: 0.643
NCI-H1975; first compound 0.005 µM
  relative viability: 0.36
NCI-H1975; first compound 0.01581 µM
  relative viability: 0.414
NCI-H1975; first compound 0.05 µM
  relative viability: 0.352
NCI-H1975; first compound 0.1581 µM
  relative viability: 0.362
NCI-H1975; first compound 0.5 µM
  relative viability: 0.405
NCI-H2085; first compound 0.005 µM
  relative viability: 0.536
NCI-H2085; first compound 0.01581 µM
  relative viability: 0.609
NCI-H2085; first compound 0.05 µM
  relative viability: 0.619
NCI-H2085; first compound 0.1581 µM
  relative viability: 0.578
NCI-H2085; first compound 0.5 µM
  relative viability: 0.562
NCI-H2087; first compound 0.005 µM
  relative viability: 0.275
NCI-H2087; first compound 0.01581 µM
  relative viability: 0.249
NCI-H2087; first compound 0.05 µM
  relative viability: 0.352
NCI-H2087; first compound 0.1581 µM
  relative viability: 0.254
NCI-H2087; first compound 0.5 µM
  relative viability: 0.348
NCI-H2170; first compound 0.005 µM
  relative viability: 0.463
NCI-H2170; first compound 0.01581 µM
  relative viability: 0.495
NCI-H2170; first compound 0.05 µM
  relative viability: 0.489
NCI-H2170; first compound 0.5 µM
  relative viability: 0.458
NCI-H2342; first compound 0.005 µM
  relative viability: 0.678
NCI-H2342; first compound 0.01581 µM
  relative viability: 0.646
NCI-H2342; first compound 0.05 µM
  relative viability: 0.789
NCI-H2342; first compound 0.5 µM
  relative viability: 0.712
NCI-H647; first compound 0.005 µM
  relative viability: 0.361
NCI-H647; first compound 0.01581 µM
  relative viability: 0.362
NCI-H647; first compound 0.05 µM
  relative viability: 0.302
NCI-H647; first compound 0.1581 µM
  relative viability: 0.315
NCI-H647; first compound 0.5 µM
  relative viability: 0.394
NCI-H650; first compound 0.005 µM
  relative viability: 0.296
NCI-H650; first compound 0.01581 µM
  relative viability: 0.299
NCI-H650; first compound 0.05 µM
  relative viability: 0.35
NCI-H650; first compound 0.1581 µM
  relative viability: 0.312
NCI-H650; first compound 0.5 µM
  relative viability: 0.294
PC-3 [JPC-3]; first compound 0.01581 µM
  relative viability: 0.843
PC-3 [JPC-3]; first compound 0.05 µM
  relative viability: 0.805
PC-3 [JPC-3]; first compound 0.1581 µM
  relative viability: 0.815
PC-3 [JPC-3]; first compound 0.5 µM
  relative viability: 0.831
SW 1573; first compound 0.005 µM
  relative viability: 0.461
SW 1573; first compound 0.01581 µM
  relative viability: 0.446
SW 1573; first compound 0.05 µM
  relative viability: 0.487
SW 1573; first compound 0.1581 µM
  relative viability: 0.376
SW 1573; first compound 0.5 µM
  relative viability: 0.451

Source: the supplement of paper PMC10307832
